Reference: patent US20040010001A1, “Methods and compositions for modulating cell proliferation and cell death” (priority 1999, published 2004)
Like-named read-outs stand apart in the source and are kept apart here.

How the values were obtained:
Assay type in all cases: cell-based
[1] = tested on: rat lymph node metastasis cells, monolayers; assay: Drug effect in monolayers of rat lymph node metastasis cells (inhibition of bromodeoxyuridine incorporation); conditions: 96 h, read-out: Concentration producing 50% inhibition
[2] = tested on: rat lung metastasis cells, monolayers; assay: Drug effect in monolayers of rat lung metastasis cells (inhibition of bromodeoxyuridine incorporation); conditions: 96 h, read-out: Concentration producing 50% inhibition
[3] = tested on: rat primary tumor cells, monolayers; assay: Drug effect in monolayers of rat primary tumor cells (inhibition of bromodeoxyuridine incorporation); conditions: 96 h, read-out: Concentration producing 50% inhibition
[4] = tested on: Human lung A459; assay: FGF-induced resistance, inhibition of BrdU incorporation; conditions: read-out: Drug concentration needed to produce 50% inhibition
Method: (§1) Prior to drug treatment, cells were incubated for 4 days with tumor CM or with r-aFGF ad/or r-bFGF-containing medium, supplemented with 1% FBS (final protein concentration adjusted to 2 mg/ml). The medium was renewed every other day.
(§2) The antiproliferative drug effect in histocultures was measured as inhibition of ^3H-thymidine incorporation quantified by autoradiography (Yen, W. C. et al. (1996) Pharm. Res. 13:1305-1312) and, for monolayers, as inhibition of BrdU incorporation or as reduction of total proteins by the sulforhodamine B assay (Au, J. L.-S. et al. (1998) Cancer Res. 58:2141-2148). For the latter, the two assays yielded qualitatively similar results. Cell kill induced by 96-hour drug treatment was monitored by the release of LDH into the culture medium. LDH activity was monitored by the conversion of tetrazolium to formazan (detected at 490 nm).
(§3) The experimental conditions are described briefly below. Cells were pretreated with human recombinant r-aFGF and/or r-bFGF for 96 hours and then with drugs for 96 hours. For the studies on cells derived from the human prostate, lung, pharynx, colon and breast cancer cells, the drug effect was determined by the inhibition of BrdU incorporation. For the study on the human leukemic cells, the drug effect was measured by the MTT assay, which measures the number of metabolically active cells (Alley, M. C. et al (1988) Cancer Res 48:589-601).

[5] = tested on: Human breast MCF7; assay: as above; conditions: read-out: Drug concentration needed to produce 50% inhibition
Method: as §1, §2, §3

[6] = tested on: Rat prostate MAT-LyLu; assay: as above; conditions: read-out: Drug concentration needed to produce 50% inhibition
Method: as §1, §2, §3

[7] = tested on: Human colon HT-29; assay: as above; conditions: read-out: Drug concentration needed to produce 50% inhibition
Method: as §1, §2, §3

[8] = tested on: Human pharynx FaDu; assay: as above; conditions: read-out: Drug concentration needed to produce 50% inhibition
Method: as §1, §2, §3

[9] = tested on: Human prostate PC3 tumor cells; assay: Drug treatment and extracellular bFGF (ELISA), LDH release, cell number; conditions: for Extracellular LDH, % of control / Extracellular bFGF, % of control / Extracellular concentration bFGF: 72 hours
Method: The experimental conditions are described briefly below. […] The remaining cell number at the end of treatment was counted using a Coulter counter. The extracellular bFGF concentration was measured using ELISA. The release of lactate dehydrogenase (LDH) into the extracellular culture medium is indicative of cell death and gives a measure of the release of cellular content into the culture medium. If the increase in extracellular bFGF level is due to the release of bFGF upon cell death and lysis, the increase in bFGF will be accompanied by an increase in LDH in the same extent. This would result in an higher bFGF level and a constant bFGF-to-LDH ratio. On the other hand, an increase in extracellular bFGF due to an increase in bFGF production and release of bFGF from cells by processes other than cell lysis will result in an higher bFGF level and an higher bFGF-to-LDH ratio.

[10] = tested on: rat primary tumors, histocultures; assay: Drug effect in histocultures of rat primary tumors (inhibition of 3H-thymidine incorporation); conditions: Histocultures, Primary, 96 hours, read-out: Concentration producing 50% inhibition

Q: Which results are given for `COc1cccc2c1C(=O)c1c(O)c3c(c(O)c1C2=O)C[C@@](O)(C(=O)CO)C[C@@H]3O[C@H]1C[C@H](N)[C@H](O)[C@H](C)O1` [Doxorubicin]?
A: IC50 ([1]; Monolayers (passage 0)): 31 ± 2.3 nM; IC50 ([1]; Monolayers (passage 1)): 17.9 ± 1.2 nM; IC50 ([1]; Monolayers (passage 2)): 11 ± 0.4 nM; IC50 ([1]; Monolayers (passage 3)): 7.8 ± 0.5 nM; IC50 ([2]; Monolayers (passage 0)): 77 ± 2.9 nM; IC50 ([2]; Monolayers (passage 1)): 31.7 ± 8.9 nM; IC50 ([2]; Monolayers (passage 2)): 16.6 ± 1 nM; IC50 ([2]; Monolayers (passage 3)): 8 ± 0.5 nM; IC50 ([3]; Monolayers (passage 0)): 8 ± 0.5 nM; IC50 ([3]; Monolayers (passage 1)): 8.6 ± 0.5 nM; IC50 ([3]; Monolayers (passage 2)): 8 ± 0.4 nM; IC50 ([3]; Monolayers (passage 3)): 8 ± 0.2 nM; IC50 ([4]; A459, 96 h, r-aFGF + r-bFGF 0 ng/ml): 122 nM; IC50 ([4]; A459, 96 h, r-aFGF + r-bFGF 0.04 ± 1 ng/ml): 118 nM; IC50 ([4]; A459, 96 h, r-aFGF + r-bFGF 0.08 ± 1 ng/ml): 159 nM; IC50 ([4]; A459, 96 h, r-aFGF + r-bFGF 0.16 ± 1 ng/ml): 238 nM; IC50 ([4]; A459, 96 h, r-aFGF + r-bFGF 0.32 ± 1 ng/ml): 309 nM; IC50 ([4]; A459, 96 h, r-aFGF + r-bFGF 0.64 ± 1 ng/ml): 386 nM; IC50 ([4]; A459, 96 h, r-aFGF + r-bFGF 1 ± 1 ng/ml): 582 nM; IC50 ([4]; A459, r-aFGF 0 ng/ml): 122 nM; IC50 ([4]; A459, r-aFGF 1 ng/ml): 120 nM; IC50 ([4]; A459, r-aFGF 10 ng/ml): 123 nM; IC50 ([4]; A459, r-aFGF 50 ng/ml): 118 nM; IC50 ([4]; A459, r-bFGF 0 ng/ml): 119 nM; IC50 ([4]; A459, r-bFGF 1 ng/ml): 118 nM; IC50 ([4]; A459, r-bFGF 10 ng/ml): 238 nM; IC50 ([4]; A459, r-bFGF 50 ng/ml): 285 nM; IC50 ([5]; MCF7, r-bFGF 0 ng/ml): 16.9 nM; IC50 ([5]; MCF7, r-bFGF 0.01 ng/ml): 21.3 nM; IC50 ([5]; MCF7, r-bFGF 0.1 ng/ml): 37.6 nM; IC50 ([5]; MCF7, r-bFGF 1 ng/ml): 595 nM; IC50 ([6]; r-bFGF 0 ng/ml): 10.3 nM; IC50 ([6]; r-bFGF 1 ng/ml): 18.3 nM; IC50 ([6]; r-bFGF 10 ng/ml): 540 nM; IC50 ([6]; r-bFGF 50 ng/ml): 238 nM; IC50 ([7]; HT-29, 96 h, r-aFGF + r-bFGF 0 ng/ml): 30.2 nM; IC50 ([7]; HT-29, 96 h, r-aFGF + r-bFGF 0.04 ± 1 ng/ml): 29.1 nM; IC50 ([7]; HT-29, 96 h, r-aFGF + r-bFGF 0.08 ± 1 ng/ml): 30 nM; IC50 ([7]; HT-29, 96 h, r-aFGF + r-bFGF 0.16 ± 1 ng/ml): 30.5 nM; IC50 ([7]; HT-29, 96 h, r-aFGF + r-bFGF 0.32 ± 1 ng/ml): 48.1 nM; IC50 ([7]; HT-29, 96 h, r-aFGF + r-bFGF 0.64 ± 1 ng/ml): 72.7 nM; IC50 ([7]; HT-29, 96 h, r-aFGF + r-bFGF 1 ± 1 ng/ml): 131 nM; IC50 ([7]; HT-29, r-aFGF 0 ng/ml): 30.2 nM; IC50 ([7]; HT-29, r-aFGF 1 ng/ml): 32.1 nM; IC50 ([7]; HT-29, r-aFGF 10 ng/ml): 30.3 nM; IC50 ([7]; HT-29, r-aFGF 50 ng/ml): 30 nM; IC50 ([7]; HT-29, r-bFGF 0 ng/ml): 24.1 nM; IC50 ([7]; HT-29, r-bFGF 1 ng/ml): 24.4 nM; IC50 ([7]; HT-29, r-bFGF 10 ng/ml): 24.5 nM; IC50 ([7]; HT-29, r-bFGF 50 ng/ml): 26.1 nM; IC50 ([8]; 96 h, r-aFGF + r-bFGF 0 ng/ml): 13.5 nM; IC50 ([8]; 96 h, r-aFGF + r-bFGF 0.04 ± 1 ng/ml): 13.5 nM; IC50 ([8]; 96 h, r-aFGF + r-bFGF 0.08 ± 1 ng/ml): 14 nM; IC50 ([8]; 96 h, r-aFGF + r-bFGF 0.16 ± 1 ng/ml): 13.7 nM; IC50 ([8]; 96 h, r-aFGF + r-bFGF 0.32 ± 1 ng/ml): 14.1 nM; IC50 ([8]; 96 h, r-aFGF + r-bFGF 0.64 ± 1 ng/ml): 27.5 nM; IC50 ([8]; 96 h, r-aFGF + r-bFGF 1 ± 1 ng/ml): 54 nM; IC50 ([8]; r-aFGF 0 ng/ml): 13.5 nM; IC50 ([8]; r-aFGF 1 ng/ml): 13 nM; IC50 ([8]; r-aFGF 10 ng/ml): 13.7 nM; IC50 ([8]; r-aFGF 50 ng/ml): 14 nM; IC50 ([8]; r-bFGF 0 ng/ml): 14.2 nM; IC50 ([8]; r-bFGF 1 ng/ml): 13.9 nM; IC50 ([8]; r-bFGF 10 ng/ml): 14.1 nM; IC50 ([8]; r-bFGF 50 ng/ml): 13.7 nM; Remaining cell number at 72 hours (% of control) ([9]; drug concentration 20 NM): 84%; Remaining cell number at 72 hours × 10^6 ([9]; drug concentration 20 NM): 2.1 × 10^6; Extracellular LDH, % of control ([9]; drug concentration 20 NM): 119 % of control; Extracellular bFGF, % of control ([9]; drug concentration 20 NM): 124 % of control; Extracellular concentration bFGF ([9]; drug concentration 20 NM): 5.87 pg/mL; Remaining cell number at 72 hours (% of control) ([9]; drug concentration 60 NM): 48%; Remaining cell number at 72 hours × 10^6 ([9]; drug concentration 60 NM): 1.2 × 10^6; Extracellular LDH, % of control ([9]; drug concentration 60 NM): 173 % of control; Extracellular bFGF, % of control ([9]; drug concentration 60 NM): 239 % of control; Extracellular concentration bFGF ([9]; drug concentration 60 NM): 11.3 pg/mL; Remaining cell number at 72 hours (% of control) ([9]; drug concentration 200 NM): 16%; Remaining cell number at 72 hours × 10^6 ([9]; drug concentration 200 NM): 0.4 × 10^6; Extracellular LDH, % of control ([9]; drug concentration 200 NM): 316 % of control; Extracellular bFGF, % of control ([9]; drug concentration 200 NM): 461 % of control; Extracellular concentration bFGF ([9]; drug concentration 200 NM): 21.8 pg/mL; IC50 [10]: 18 ± 11 nM
